ChEMBL document CHEMBL1156502, “Stabilized immune modulatory RNA compounds as agonists of Toll-like receptors 7 and 8” (Proc Natl Acad Sci U S A, 2007)
The source made the active and inactive calls. The rule behind the calls is not given here.

How the values were obtained:
[1] = Stability in 1% human serum assessed as full length product after 10 mins; assay type: ADME, cell-free
[2] = molecular target: T1, Toll-like receptor 7 (Homo sapiens) (UniProt Q9NYK1); experiment: Activation of human TLR7 expressed in HEK293 cells assessed as increase in NF-kappaB activation at 100 ug/ml by SEAP assay; assay type: cell-based
T1 sequence (whole entry): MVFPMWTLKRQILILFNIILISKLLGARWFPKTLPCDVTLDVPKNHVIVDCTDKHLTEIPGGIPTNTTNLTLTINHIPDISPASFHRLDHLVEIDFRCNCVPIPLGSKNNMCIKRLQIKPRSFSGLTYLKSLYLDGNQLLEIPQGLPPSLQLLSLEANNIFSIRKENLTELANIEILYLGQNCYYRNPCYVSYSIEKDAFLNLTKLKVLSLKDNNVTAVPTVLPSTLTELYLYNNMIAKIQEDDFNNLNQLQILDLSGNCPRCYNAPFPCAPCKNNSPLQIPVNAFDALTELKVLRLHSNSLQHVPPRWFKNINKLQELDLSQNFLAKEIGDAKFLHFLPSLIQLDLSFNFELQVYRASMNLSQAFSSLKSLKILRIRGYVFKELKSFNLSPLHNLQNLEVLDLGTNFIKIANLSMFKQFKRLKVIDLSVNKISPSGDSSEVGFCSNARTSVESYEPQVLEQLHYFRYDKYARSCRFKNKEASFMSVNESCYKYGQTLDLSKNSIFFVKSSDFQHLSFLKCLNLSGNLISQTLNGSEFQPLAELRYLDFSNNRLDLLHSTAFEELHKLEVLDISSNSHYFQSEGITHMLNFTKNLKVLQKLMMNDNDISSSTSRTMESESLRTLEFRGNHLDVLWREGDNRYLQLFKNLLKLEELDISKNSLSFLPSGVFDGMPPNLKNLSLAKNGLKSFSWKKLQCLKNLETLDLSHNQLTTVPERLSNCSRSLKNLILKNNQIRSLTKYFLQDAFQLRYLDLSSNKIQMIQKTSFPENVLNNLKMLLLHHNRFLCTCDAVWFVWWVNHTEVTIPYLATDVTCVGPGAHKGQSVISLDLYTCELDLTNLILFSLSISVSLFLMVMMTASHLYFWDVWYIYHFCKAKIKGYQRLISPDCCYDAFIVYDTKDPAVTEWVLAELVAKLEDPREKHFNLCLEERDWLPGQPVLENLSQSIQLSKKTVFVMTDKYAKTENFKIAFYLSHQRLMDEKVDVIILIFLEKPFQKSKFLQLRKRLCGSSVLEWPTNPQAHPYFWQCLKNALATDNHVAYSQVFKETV

[3] = molecular target: T2, Toll-like receptor 8 (Homo sapiens) (UniProt Q9NR97); experiment: Activation of human TLR8 expressed in HEK293 cells assessed as increase in NF-kappaB activation at 100 ug/ml by SEAP assay; assay type: cell-based
T2 sequence (whole entry): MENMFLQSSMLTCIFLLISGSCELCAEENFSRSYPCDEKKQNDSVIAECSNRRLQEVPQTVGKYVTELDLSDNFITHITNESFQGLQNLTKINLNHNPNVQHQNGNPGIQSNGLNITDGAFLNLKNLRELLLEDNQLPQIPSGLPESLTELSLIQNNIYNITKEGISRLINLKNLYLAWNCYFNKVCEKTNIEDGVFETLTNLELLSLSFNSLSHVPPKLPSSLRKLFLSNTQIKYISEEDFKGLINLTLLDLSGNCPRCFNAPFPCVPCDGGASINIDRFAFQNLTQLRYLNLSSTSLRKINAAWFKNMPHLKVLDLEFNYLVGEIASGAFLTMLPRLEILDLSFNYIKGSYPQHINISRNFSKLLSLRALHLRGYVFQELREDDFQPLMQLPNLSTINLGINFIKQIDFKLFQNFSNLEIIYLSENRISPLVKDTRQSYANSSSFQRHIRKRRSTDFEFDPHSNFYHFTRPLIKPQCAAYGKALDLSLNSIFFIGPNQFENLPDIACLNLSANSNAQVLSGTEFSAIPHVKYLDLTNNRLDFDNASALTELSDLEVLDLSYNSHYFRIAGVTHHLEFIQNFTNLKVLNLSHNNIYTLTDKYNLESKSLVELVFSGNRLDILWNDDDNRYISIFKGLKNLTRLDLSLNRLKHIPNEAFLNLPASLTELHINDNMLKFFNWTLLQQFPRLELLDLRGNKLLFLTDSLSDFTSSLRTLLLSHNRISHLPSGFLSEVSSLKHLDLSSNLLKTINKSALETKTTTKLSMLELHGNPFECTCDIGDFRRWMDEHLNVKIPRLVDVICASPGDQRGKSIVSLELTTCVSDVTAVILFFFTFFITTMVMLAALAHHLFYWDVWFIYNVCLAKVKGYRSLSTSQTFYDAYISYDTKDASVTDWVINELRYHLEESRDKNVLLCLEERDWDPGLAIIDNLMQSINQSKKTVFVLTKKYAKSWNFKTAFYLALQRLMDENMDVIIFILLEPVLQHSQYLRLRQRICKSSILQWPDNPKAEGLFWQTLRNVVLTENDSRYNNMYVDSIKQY

## Nc1ccn([C@@H]2O[C@H](COP(O)(=S)O[C@H]3[C@@H](O)[C@H](n4ccc(=O)[nH]c4=O)O[C@@H]3COP(O)(=S)O[C@H]3[C@@H](O)[C@H](n4ccc(N)nc4=O)O[C@@H]3COP(O)(=S)O[C@H]3[C@@H](O)[C@H](n4cnc5c(N)ncnc54)O[C@@H]3COP(O)(=S)O[C@H]3[C@@H](O)[C@H](n4cnc5c(=O)[nH]c(N)nc54)O[C@@H]3COP(O)(=S)O[C@H]3[C@@H](O)[C@H](n4ccc(=O)[nH]c4=O)O[C@@H]3COP(O)(=S)O[C@H]3[C@@H](O)[C@H](n4cnc5c(=O)[nH]c(N)nc54)O[C@@H]3COP(O)(=S)O[C@H]3[C@@H](O)[C@H](n4ccc(=O)[nH]c4=O)O[C@@H]3COP(O)(=S)O[C@H]3[C@@H](O)[C@H](n4cnc5c(=O)[nH]c(N)nc54)O[C@@H]3COP(O)(=S)O[C@H]3[C@@H](O)[C@H](n4ccc(=O)[nH]c4=O)O[C@@H]3COP(O)(=S)O[C@H]3[C@@H](O)[C@H](n4ccc(=O)[nH]c4=O)O[C@@H]3COP(O)(=S)O[C@H]3[C@@H](O)[C@H](n4cnc5c(=O)[nH]c(N)nc54)O[C@@H]3COP(O)(=S)O[C@H]3[C@@H](O)[C@H](n4ccc(=O)[nH]c4=O)O[C@@H]3COP(O)(=S)O[C@H]3[C@@H](O)[C@H](n4ccc(N)nc4=O)O[C@@H]3COP(O)(=S)O[C@H]3[C@@H](O)[C@H](n4ccc(=O)[nH]c4=O)O[C@@H]3COP(O)(=S)O[C@H]3[C@@H](O)[C@H](n4cnc5c(=O)[nH]c(N)nc54)O[C@@H]3COP(O)(=S)O[C@H]3[C@@H](O)[C@H](n4ccc(N)nc4=O)O[C@@H]3COP(O)(=S)O[C@H]3[C@@H](O)[C@H](n4ccc(N)nc4=O)O[C@@H]3COP(O)(=S)O[C@H]3[C@@H](O)[C@H](n4ccc(N)nc4=O)O[C@@H]3COP(O)(=S)O[C@H]3[C@@H](O)[C@H](n4cnc5c(=O)[nH]c(N)nc54)O[C@@H]3CO)[C@@H](O)[C@H]2O)c(=O)n1 (stereo partly specified)
[1]; read-out: Stability
  remaining at 10 min: 47%
[2]
  Activity: inactive

## Nc1ccn([C@@H]2O[C@H](CO)[C@@H](OP(O)(=S)OC[C@H]3O[C@@H](n4ccc(=O)[nH]c4=O)[C@H](O)[C@@H]3OP(O)(=S)OC[C@H]3O[C@@H](n4ccc(=O)[nH]c4=O)[C@H](O)[C@@H]3OP(O)(=S)OC[C@H]3O[C@@H](n4ccc(=O)[nH]c4=O)[C@H](O)[C@@H]3OP(O)(=S)OC[C@H]3O[C@@H](n4cnc5c(=O)[nH]c(N)nc54)[C@H](O)[C@@H]3OP(O)(=S)OC[C@H]3O[C@@H](n4cnc5c(=O)[nH]c(N)nc54)[C@H](O)[C@@H]3OP(O)(=S)OC[C@H]3O[C@@H](n4ccc(=O)[nH]c4=O)[C@H](O)[C@@H]3OP(O)(=S)OC[C@H]3O[C@@H](n4cnc5c(=O)[nH]c(N)nc54)[C@H](O)[C@@H]3OP(O)(=S)OC[C@H]3O[C@@H](n4ccc(=O)[nH]c4=O)[C@H](O)[C@@H]3OP(O)(=S)OC[C@H]3O[C@@H](n4cnc5c(=O)[nH]c(N)nc54)[C@H](O)[C@@H]3OP(O)(=S)OC[C@H]3O[C@@H](n4ccc(=O)[nH]c4=O)[C@H](O)[C@@H]3OP(O)(=S)OCC(O)COP(O)(=S)O[C@H]3[C@@H](O)[C@H](n4ccc(=O)[nH]c4=O)O[C@@H]3COP(O)(=S)O[C@H]3[C@@H](O)[C@H](n4cnc5c(=O)[nH]c(N)nc54)O[C@@H]3COP(O)(=S)O[C@H]3[C@@H](O)[C@H](n4ccc(=O)[nH]c4=O)O[C@@H]3COP(O)(=S)O[C@H]3[C@@H](O)[C@H](n4cnc5c(=O)[nH]c(N)nc54)O[C@@H]3COP(O)(=S)O[C@H]3[C@@H](O)[C@H](n4ccc(=O)[nH]c4=O)O[C@@H]3COP(O)(=S)O[C@H]3[C@@H](O)[C@H](n4cnc5c(=O)[nH]c(N)nc54)O[C@@H]3COP(O)(=S)O[C@H]3[C@@H](O)[C@H](n4cnc5c(=O)[nH]c(N)nc54)O[C@@H]3COP(O)(=S)O[C@H]3[C@@H](O)[C@H](n4ccc(=O)[nH]c4=O)O[C@@H]3COP(O)(=S)O[C@H]3[C@@H](O)[C@H](n4ccc(=O)[nH]c4=O)O[C@@H]3COP(O)(=S)O[C@H]3[C@@H](O)[C@H](n4ccc(=O)[nH]c4=O)O[C@@H]3COP(O)(=S)O[C@H]3[C@@H](O)[C@H](n4ccc(N)nc4=O)O[C@@H]3CO)[C@H]2O)c(=O)n1 (stereo partly specified)
[1]; read-out: Activity
  remaining at 10 min: 79%
[3]
  Activity: inactive

## Nc1ccn([C@@H]2O[C@H](COP(O)(=S)O[C@H]3[C@@H](O)[C@H](n4ccc(N)nc4=O)O[C@@H]3COP(O)(=S)O[C@H]3[C@@H](O)[C@H](n4cnc5c(=O)[nH]c(N)nc54)O[C@@H]3COP(O)(=S)O[C@H]3[C@@H](O)[C@H](n4ccc(N)nc4=O)O[C@@H]3COP(O)(=S)O[C@H]3[C@@H](O)[C@H](n4ccc(=O)[nH]c4=O)O[C@@H]3COP(O)(=S)O[C@H]3[C@@H](O)[C@H](n4cnc5c(N)ncnc54)O[C@@H]3COP(O)(=S)O[C@H]3[C@@H](O)[C@H](n4ccc(N)nc4=O)O[C@@H]3COP(O)(=S)O[C@H]3[C@@H](O)[C@H](n4cnc5c(N)ncnc54)O[C@@H]3COP(O)(=S)O[C@H]3[C@@H](O)[C@H](n4cnc5c(=O)[nH]c(N)nc54)O[C@@H]3COP(O)(=S)O[C@H]3[C@@H](O)[C@H](n4cnc5c(N)ncnc54)O[C@@H]3COP(O)(=S)O[C@H]3[C@@H](O)[C@H](n4cnc5c(N)ncnc54)O[C@@H]3CO)[C@@H](OP(O)(=S)OC[C@H]3O[C@@H](n4ccc(=O)[nH]c4=O)[C@H](O)[C@@H]3OP(O)(=S)OC[C@H]3O[C@@H](n4cnc5c(=O)[nH]c(N)nc54)[C@H](O)[C@@H]3OP(O)(=S)OC[C@H]3O[C@@H](n4cnc5c(=O)[nH]c(N)nc54)[C@H](O)[C@@H]3OP(O)(=S)OC[C@H]3O[C@@H](n4ccc(=O)[nH]c4=O)[C@H](O)[C@@H]3OP(O)(=S)OC[C@H]3O[C@@H](n4ccc(=O)[nH]c4=O)[C@H](O)[C@@H]3OP(O)(=S)OC[C@H]3O[C@@H](n4cnc5c(N)ncnc54)[C@H](O)[C@@H]3O)[C@H]2O)c(=O)n1 (stereo partly specified)
[1]; read-out: Stability
  remaining at 10 min: 1%
[2]
  Activity: inactive
